The source of these data is US6407125B1, “Pharmacological agent and method of treatment” (Novactyl, Inc., priority 1995, dated 2002).

In data set [1] the test system is cells. The conditions noted are these: cited from earlier work.
The test system of data set [2] is Microbial and fungal growth. Description: Preservative effect on microbial and fungal growth in foods. The conditions noted are these: used as preservative. An excerpt: The chelating agents of the present invention can be used as preservatives in perishable items such as foods and pharmaceuticals and to prevent fungal growth on the surface of fresh fruits. Presently chemicals such as citrashine orthophenilphenol thiabendazole are used. […] Microbial and fungal growth is inhibited while the food components are unaffected. The preservative of the present invention has less likelihood of toxicity or untoward reactions if ingested that the present, complex chemical antifungals. The preferred concentration of picolinic acid or acceptable derivative for this use is approximately below 0.025% to be classified as a preservative. Of course, greater percentages, e.g. up to 99.9% also would be effective.

Data set [3] concerns normal cells. The conditions noted are these: longer exposure; most normal cells; cited from earlier work.
The test system of data set [4] is human papilloma viruses. Description: Topical treatment of common warts. Type of data set: in vivo. The conditions noted are these: 10% to 20% solution or 10% ointment in Aquaphor. How it is done:
Five patients ranging in age from 11 years to 52 years and each having at least one common wart induced by human papilloma viruses was treated with a topical preparation of picolinic acid The topical preparation was either solution of 10% to 20% picolinic acid in deionized water or a topical ointment wherein 10% picolinic acid is incorporated into Aquaphor, i.e. 1 g of picolinic acid in 10 g of Aquaphor.

Data set [5] deals with plantar wart. Description: Topical treatment of virus-induced plantar ulcer. Type of data set: in vivo, human. How it is done:
A patient with recurrent plantar wart of about 2 cm in diameter was treated with topical picolinic acid. The patient, a pathologist who had difficulty walking because of the pain caused by the ulcer, had experimented with numerous medications for more than three months without any significant results prior to treatment with the picolinic acid. It is relevant to note that many plantar ulcers are transformed into malignant tumors.
The patient was treated with a solution of 10% picolinic acid in deionized water for one week. […] They then were treated with 10% picolinic acid in Aquaphor. The ointment was placed on the ulcer and on a patch. The patch was replaced every 24 hours.

The test system of data set [6] is metastatic colon cancer. Description: Oral treatment of metastatic colon cancer, case. The data set is classed as in vivo, human. An excerpt: The inventor has determined that systemic administration of picolinic acid or derivatives is effective in controlling various cancers with reduced side effects by mechanisms heretofore unknown or unanticipated. […] The patient's condition improved. Based upon known mechanisms of action, the inventor anticipated that the patient may become anemic due to the concomitant chelation of iron. However, the inventor discovered a completely novel response. Over the course of several weeks, the patent's hematocrit increased. The inventor determined that the increase in hemoglobin along with the clinical improvement, is a result of synergistic mechanisms. First, the chelation of the iron suppressed tumor angiogenesis and induce killer T-cell formation. Furthermore, the chelated iron appears to be actively and usefully transported to bone marrow to support hematopoesis.
The subject is a person with metastatic colon cancer. The subject presented with an enlarged lymph node in the neck. The lymph node was putting pressure on nerves causing a drooping of the subject's right eyelid. […] Treatment was initiated with 500 mg of picolinic acid in capsule form, by mouth twice daily. […] An aspiration needle biopsy of the lymph node was attempted but had to be repeated due to the fact that the pathologist was withdrawing necrotic tissue from the lymph node. […] The protocol includes increasing the dosage up to 2000 mg per day, or more, if required.

A short description of data set [7]: Topical treatment of psoriasis. The data set is classed as in vivo, human. The conditions noted are these: preliminary information. An excerpt: Several patients suffering from proliferative skin disorders such as psoriasis have been included in a recent ongoing study of the anti-proliferative effects of topical picolinic acid. […] The patients may be treated with a topical application of approximately 5% to 20% picolinic acid, or a derivative thereof, in an absorption base. Alternatively, the patient may be treated with a solution containing approximately 5% to 20% picolinic acid, or derivative, in deionized water. The topical preparation may be applied twice a day or in an alternative pharmacologically acceptable regimen.

Turning to `O=C(O)c1ccccn1` [picolinic acid, 2-Pyridine carboxylic acid], in data set [1], the “incorporation of iron into the cells” value was “inhibits incorporation of iron into the cells” and the “removal of radioiron from the cells” value is on record as “effectively removes radioiron from the cells”. Further, the “microbial and fungal growth” value in data set [2] is listed as “inhibited”. Also, the “toxic effects in normal cells” value in data set [3] is “no toxic effects”. In addition, the wart outcome in data set [4] (after approximately 4 to 6 weeks) was “the warts were gone”. For the same compound, the wart appearance result in data set [4] (after seven days, five patients) is on record as “central necrosis of the wart occurred”. Besides, the plantar ulcer appearance entry in data set [5] (10% solution in deionized water for one week) is recorded as “Central necrosis was noted”. Moreover, the plantar ulcer outcome in data set [5] (then 10% in Aquaphor on ulcer and patch, additional three weeks) is reported as “the plantar ulcer resolved”. Also, the “estimated reduction in mass of cancerous lymph node” value in data set [6] (500 mg capsule by mouth twice daily, within 72 hours, palpation) was “over 50%”. Further, the tolerability result in data set [6] (500 mg picolinic acid twice daily) is “tolerating treatment well”. Further, the hematocrit result in data set [6] (oral picolinic acid, over several weeks) is “increased”. Besides, where the note is “10% in Aquaphor daily, approximately three weeks, two patients”, the actinic lesion outcome is on record as “completely cured”. The “effects on normal skin” value (in vivo) is “without any effects on normal skin”. The regression of psoriasis entry in data set [7] is on record as “significant effect in inducing regression of the psoriasis”.
